Experimental data as given in US8846928B2 (Portola Pharmaceuticals, Inc., priority 2010, dated 2014).
Values joined by “and” are separate entries in the source; they are usually repeats but may differ in a detail not shown here. Equal values may be shown once.

target: T1, full length active recombinant SYK enzyme (Homo sapiens, UniProt P43405); test: Inhibition of Syk tyrosine phosphorylation activity (LANCE TR-FRET kinase assay); type: biochemical
T1 construct: full length active recombinant SYK enzyme (Millipore, Calif.); purchased Millipore
Method: Inhibition of Syk Tyrosine Phosphorylation Activity
Potency of candidate molecules for inhibiting Syk tyrosine phosphorylation activity is assessed by measuring the ability of a test compound to inhibit Syk-mediated tyrosine phosphorylation of a Syk-specific substrate.
SYK tyrosine phosphorylation activity is measured using the LANCE™ Technology developed by Perkin Elmer Life and Analytical Sciences (Boston, Mass.). LANCE™ refers to homogeneous time resolved fluorometry applications using techniques such as time-resolved fluorescence resonance energy transfer assay (TR-FRET) (see generally for procedures in Perkin Elmer Application Note—How to Optimize a Tyrosine Kinase Assay Using Time Resolved Fluorescence-Based LANCE Detection, wwww.perkinelmer.com/lifesciences). The assay principle involves detection of a phosphorylated substrate using energy transfer from a phosphospecific europium-labeled antibody to streptavidin-allophycocyanin as an acceptor.
To test the ability of candidate molecules to inhibit SYK tyrosine phosphorylation activity, molecules are reconstituted in 30% DMSO and serially diluted 1:3 with the final dilution containing DMSO in the absence of the candidate molecule. The final DMSO concentration in the assay is 3%. Kinase assays are performed as a two part reaction. […] The second reaction involves termination of the kinase reaction and the simultaneous addition of the detection reagents—europium-labeled anti-phosphotyrosine reagent (Eu-W1024-PY100, Perkin Elmer, Boston, Mass.) and Streptavidin-Allophycocyanin detection reagent (SA-APC, Prozyme, Calif.). The kinase reaction is performed in a black U-bottom 96-well microtitre plate. The final reaction volume is 50 μL and contains a final concentration of 1 nM active SYK enzyme, 550 nM SYK-substrate, and 100 μM ATP diluted in a buffer containing 50 mM Tris pH 7.5, 5 mM MgCl2, and 1 mM DTT. The reaction is allowed to proceed for 1 hour at room temperature. The quench buffer contains 100 mM Tris pH 7.5, 300 mM NaCl2, 20 mM EDTA, 0.02% Brij35, and 0.5% BSA. The detection reagents are added to the reaction mixture at the following dilutions-1:500 for Eu-W1024-PY100 and 1:250 for SA-APC. The kinase reaction is terminated by the addition of 50 μL quench buffer containing the detection reagents. The detection is allowed to proceed for 1 hr at room temperature. Detection of the phosphorylated substrate in the absence and presence of inhibitors is measured in the TR-FRET instrument, Analyst HT (Molecular Probes, Sunnyvale, Calif.) and the condition for measurements are set up using CriterionHost Release 2.0 (Molecular Probes, Sunnyvale, Calif.). The settings used are a follows: excitation 360 nm, emission 665-7.5 nm, beam splitter 350 nm 50/50, flash 100 pulses, delay 60 us, integration 400 us, z-height 2 mm. […] IC50s were derived by non-linear regression analysis. […]

Compound | IC50
NC(=O)c1cc(F)c(N[C@@H]2CCCC[C@@H]2N)nc1Nc1cnc2ncccc2c1 [Example 150, 2-(1,8-naphthyridin-3-ylamino)-6-((1R,2S)-2-aminocyclohexylamino)-5-fluoronicotinamide] | 1 to 10 nM
C[C@H](N)CNc1nc(Nc2cccc(-n3nccn3)c2)c(C(N)=O)cc1C#N [Example 108, (S)-2-(3-(2H-1,2,3-triazol-2-yl)phenylamino)-6-(2-aminopropylamino)-5-cyanonicotinamide] | 10 to 100 nM
COCCOc1cccc(Nc2nc(N[C@@H]3CCCC[C@@H]3N)c(F)cc2C(N)=O)c1 [Example 79, 6-((1R,2S)-2-aminocyclohexylamino)-5-fluoro-2-(3-(2-methoxyethoxy)phenylamino)nicotinamide] | 1 to 10 nM
Cc1cc(Nc2cc(N[C@@H](C(N)=O)C3CC3)ccc2C(N)=O)sn1 [Example 34] | 10 to 100 nM
NC(=O)c1cc(F)c(N[C@@H]2CCCC[C@@H]2N)nc1Nc1cccc(-n2ccnc2)c1 [Example 46, 2-(3-(1H-imidazol-1-yl)phenylamino)-6-((1R,2S)-2-aminocyclohexylamino)-5-fluoronicotinamide] | 1 to 10 nM
NC(=O)c1cc(F)c(N[C@@H]2CCCC[C@@H]2N)nc1Nc1ccc2scnc2c1 [Example 310] | 1 to 10 nM
COc1cncc(Nc2nc(N[C@@H]3CCCC[C@@H]3N)c(F)cc2C(N)=O)c1 [Example 88, 6-((1R,2S)-2-aminocyclohexylamino)-5-fluoro-2-(5-methoxypyridin-3-ylamino)nicotinamide] | 1 to 10 nM
Cc1cc(Nc2cc(N[C@H](Cc3ccccc3)C(N)=O)ccc2C(N)=O)sn1 [Example 14, (R)-4-(1-amino-1-oxo-3-phenylpropan-2-ylamino)-2-(3-methylisothiazol-5-ylamino)benzamide] | 10 to 100 nM
NC(=O)c1cc(F)c(N[C@@H]2CCCC[C@@H]2N)nc1Nc1ccnc2ncccc12 [Example 151, 2-(1,8-naphthyridin-4-ylamino)-6-((1R,2S)-2-aminocyclohexylamino)-5-fluoronicotinamide] | 1 to 10 nM
CC[C@@H](Nc1nc(Nc2ccc3nccn3c2)c(C(N)=O)cc1F)C(N)=O [Example 229, (R)-6-(1-amino-1-oxobutan-2-ylamino)-5-fluoro-2-(H-imidazo[1,2-a]pyridin-6-ylamino)nicotinamide] | 10 to 100 nM
NC(=O)c1cc(F)c(N[C@@H]2CCCC[C@@H]2N)nc1Nc1ccc(-c2ncccn2)cc1 [Example 58, 6-((1R,2S)-2-aminocyclohexylamino)-5-fluoro-2-(4-(pyrimidin-2-yl)phenylamino)nicotinamide] | 1 to 10 nM
NC(=O)c1cc(F)c(N[C@@H]2CCCC[C@@H]2N)nc1Nc1cncc(-c2nccs2)c1 [Example 162, 6-((1R,2S)-2-aminocyclohexylamino)-5-fluoro-2-(5-(thiazol-2-yl)pyridin-3-ylamino)nicotinamide] | 1 to 10 nM
Cc1cc(Nc2cc(N[C@H](CC3CC3)C(N)=O)ccc2C(N)=O)sn1 [Example 35, (R)-4-(1-amino-3-cyclopropyl-1-oxopropan-2-ylamino)-2-(3-methylisothiazol-5-ylamino)benzamide] | 10 to 100 nM
NC(=O)c1ccc(N[C@@H]2CCCC[C@@H]2N)nc1Nc1ccc2c(c1)OCO2 [Example 255] | 1 to 10 nM and 10 to 100 nM
Cn1ncc2c(Nc3nc(N[C@@H]4CCCC[C@@H]4N)c(F)cc3C(N)=O)cccc21 [Example 136, 2-(1-methyl-1H-indazol-4-ylamino)-6-((1R,2S)-2-aminocyclohexylamino)-5-fluoronicotinamide] | 1 to 10 nM
Cc1cccc(Nc2nc(N[C@@H]3CCCC[C@@H]3N)c(C#N)cc2C(N)=O)c1 [Example 107, 6-((1R,2S)-2-aminocyclohexylamino)-5-cyano 2-(m-tolylamino)nicotinamide] | 1 to 10 nM
NC(=O)c1cc(F)c(N[C@@H]2CCCC[C@@H]2N)nc1Nc1ccc(-n2nccn2)cc1 [Example 49, 2-(4-(2H-1,2,3-triazol-2-yephenylamino)-6-(1R,2S)-2-aminocyclohexylamino)-5-fluoronicotinamide] | 10 to 100 nM
NC(=O)c1cc(F)c(N[C@@H]2CCCC[C@@H]2N)nc1Nc1cnc2ccccc2c1 [Example 70, 6-((1R,2S)-2-aminocyclohexylamino)-5-fluoro-2-(quinolin-3-ylamino)nicotinamide] | 1 to 10 nM
NC(=O)c1ccc(N[C@@H]2CCCC[C@@H]2N)nc1Nc1ccncc1 [Example 181, 6-((1R,2S)-2-aminocyclohexylamino)-2-(pyridin-4-ylamino)nicotinamide] | 1 to 10 nM
NC(=O)c1ccc(N[C@@H]2CCCC[C@@H]2N)nc1Nc1cccc(-n2cccn2)c1 [Example 192, 2-(3-(1H-pyrazol-1-yl)phenylamino)-6-((1R,2S)-2-aminocyclohexylamino)nicotinamide] | 1 to 10 nM
NC(=O)c1cc(F)c(N[C@@H]2CCCC[C@@H]2N)nc1Nc1ccc(N2CCCC2)cc1 [Example 53, 6-((1R,2S)-2-aminocyclohexylamino)-5-fluoro-2-(4-(pyrrolidin-1-yl)phenylamino)nicotinamide] | 10 to 100 nM
CC(C)C[C@@H](Nc1nc(Nc2cccc(-n3nccn3)c2)c(C(N)=O)cc1C#N)C(N)=O [Example 125, (R)-2-(3-(2H-1,2,3-triazol-2-yl)phenylamino)-6-(1-amino-4-methyl-1-oxopentan-2-ylamino)-5-cyanonicotinamide] | 100 to 1000 nM
NC(=O)c1cc(F)c(N[C@@H]2CCCC[C@@H]2N)nc1Nc1ccc2nccn2c1 [Example 61, 6-((1R,2S)-2-aminocyclohexylamino)-5-fluoro-2-(imidazo[1,2-a]pyridin-6-ylamino)nicotinamide] | 1 to 10 nM

Second part, the compound after the results:

IC50 | Compound
1 to 10 nM | Cc1ccc(Nc2nc(N[C@@H]3CCCC[C@@H]3N)c(F)cc2C(N)=O)cc1 [Example 315, 6-((1R,2S)-2-aminocyclohexylamino)-5-fluoro-2-(p-tolylamino)nicotinamide]
10 to 100 nM | NC(=O)c1cc(F)c(N[C@@H]2CCCC(F)(F)[C@@H]2N)nc1Nc1ccc2ncsc2c1 [Example 328, 6-((1R,2R)-2-amino-3,3-difluorocyclohexylamino)-2-(benzo[d]thiazol-6-ylamino)-5-fluoronicotinamide]
10 to 100 nM | Cn1ccc2c(Nc3nc(N[C@@H]4CCCC(F)(F)[C@@H]4N)c(F)cc3C(N)=O)cccc21 [Example 330, 6-((1R,2R)-2-amino-3,3-difluorocyclohexylamino)-5-fluoro-2-(1-methyl-1H-indol-4-ylamino)nicotinamide]
10 to 100 nM | Cc1cc(F)cc(Nc2nc(N[C@@H]3CCCC(F)(F)[C@@H]3N)c(F)cc2C(N)=O)c1 [Example 339, 6-((1R,2R)-2-amino-3,3-difluorocyclohexylamino)-5-fluoro-2-(3-fluoro-5-methylphenylamino)nicotinamide]
< 1 nM | Cc1cc(F)cc(Nc2nc(N[C@@H]3CCCC[C@@H]3N)c(F)cc2C(N)=O)c1 [Example 321, 6-((1R,2S)-2-aminocyclohexylamino)-5-fluoro-2-(3-fluoro-5-methylphenylamino)nicotinamide]
1 to 10 nM | NC(=O)c1ccc(N[C@@H]2CCCC[C@@H]2N)nc1Nc1ccc2nc(O)sc2c1 [Example 404, 6-((1R,2S)-2-aminocyclohexylamino)-2-(2-hydroxybenzo[d]thiazol-6-ylamino)nicotinamide]
100 to 1000 nM | CC[C@H](Nc1nc(Nc2cccc(C)c2)c(C(N)=O)cc1F)C1(N)CC1 [Example 369, (S)-6-(1-(1-aminocyclopropyl)propylamino)-5-fluoro-2-(m-tolylamino)nicotinamide]
1 to 10 nM | Cc1ccc(Nc2nc(N[C@@H]3CCCC[C@@H]3N)c(F)cc2C(N)=O)cc1F [Example 323]
1 to 10 nM | NC(=O)c1ccc(N[C@@H]2CCCC[C@@H]2N)nc1Nc1ccc2ncsc2c1 [Example 403, 6-((1R,2S)-2-aminocyclohexylamino)-2-(benzo[d]thiazol-6-ylamino)nicotinamide]
10 to 100 nM | CC[C@@H](Nc1nc(Nc2cnn3ccccc23)c(C(N)=O)cc1F)C(N)=O [Example 424, (R)-6-(1-amino-1-oxobutan-2-ylamino)-5-fluoro-2-(pyrazolo[1,5-a]pyridin-3-ylamino)nicotinamide]
